Paper PMC5120310, “In Silico Exploration for Novel Type-I Inhibitors of Tie-2/TEK: The Performance of Different Selection Strategy in Selecting Virtual Screening Candidates” (Scientific Reports, 2016)
Like-named read-outs stand apart in the source and are kept apart here.

Key:
[1] = biological target: T1, recombinant human Tie-2 protein (Homo sapiens, UniProt Q02763); experiment: Z′-Lyte FRET enzymatic activity assay of Tie-2 kinase; format: biochemical; settings: for Inhibition (%) @10 μg/ml / inhibition at 10 µg/mL: 10 μg/mL preliminary screening, Table S1
T1 construct: purchased Thermo Fisher Scientific Inc. PV3628
T1 sequence (Q02763 23-1124): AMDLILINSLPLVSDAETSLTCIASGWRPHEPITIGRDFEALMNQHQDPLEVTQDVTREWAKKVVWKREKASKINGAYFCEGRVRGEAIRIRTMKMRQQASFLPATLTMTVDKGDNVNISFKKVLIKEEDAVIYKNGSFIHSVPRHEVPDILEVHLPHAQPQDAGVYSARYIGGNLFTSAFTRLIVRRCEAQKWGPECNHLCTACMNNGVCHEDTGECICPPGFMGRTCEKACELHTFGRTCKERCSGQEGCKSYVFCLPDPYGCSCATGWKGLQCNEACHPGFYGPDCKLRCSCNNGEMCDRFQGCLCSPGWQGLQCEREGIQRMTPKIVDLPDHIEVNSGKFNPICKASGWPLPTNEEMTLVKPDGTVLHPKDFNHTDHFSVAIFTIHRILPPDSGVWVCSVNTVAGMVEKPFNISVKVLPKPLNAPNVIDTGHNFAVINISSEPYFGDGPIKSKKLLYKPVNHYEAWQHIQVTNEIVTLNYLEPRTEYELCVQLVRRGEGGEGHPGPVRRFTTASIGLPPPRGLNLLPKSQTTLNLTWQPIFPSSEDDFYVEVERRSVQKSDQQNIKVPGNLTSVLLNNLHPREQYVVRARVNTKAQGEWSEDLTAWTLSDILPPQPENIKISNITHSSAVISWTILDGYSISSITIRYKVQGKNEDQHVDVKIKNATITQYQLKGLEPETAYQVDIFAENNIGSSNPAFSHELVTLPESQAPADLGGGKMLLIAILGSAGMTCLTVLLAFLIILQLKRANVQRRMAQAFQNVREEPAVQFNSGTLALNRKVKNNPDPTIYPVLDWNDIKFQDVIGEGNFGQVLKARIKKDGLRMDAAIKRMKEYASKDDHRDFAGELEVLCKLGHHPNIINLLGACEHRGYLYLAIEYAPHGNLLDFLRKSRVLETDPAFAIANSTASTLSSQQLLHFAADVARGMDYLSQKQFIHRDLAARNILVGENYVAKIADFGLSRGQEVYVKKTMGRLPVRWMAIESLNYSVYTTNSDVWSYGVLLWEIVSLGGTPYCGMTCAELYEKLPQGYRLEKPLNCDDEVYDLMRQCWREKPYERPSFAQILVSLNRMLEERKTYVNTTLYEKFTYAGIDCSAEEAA
Protocol: In order to assess the biological inhibitory activity of the VS compounds, Z’-Lyte enzymatic activity assay based on FRET (Fluorescence Resonance Energy Transfer) technology was developed as described above. […] At first, all the compounds obtained from both filtering strategies were preliminary screened for their ability to inhibit Tie-2 kinase activity at the concentration of 10 μg/mL.
The Tie-2 kinase inhibitor (CAS#: 948557-43-5, purity ≥ 97%) was purchased from Merck Calbiochem (Darmstadt, Germany) and used as a positive control inhibitor in bioassays[40]. […] All the purchased screening compounds were firstly dissolved in dimethyl sulfoxide (DMSO) at a stock concentration of 5 mg/ml. The final working concentration of DMSO is less than 1%.
Compounds were tested for their ability to inhibit Tie-2 kinase activity using Z′-Lyte® kinase assay kit (ser/thr 5 peptide) with NUNC 384-well plate. In the first step, the test compounds and ATP solution were firstly prepared at 4 × desired concentration. The mixture of recombinant human Tie-2 protein and non-phosphorylated peptide at 2 × desired concentration was prepared in kinase reaction buffer A consisting of 50 mM HEPES (pH 7.5), 0.01% BRIJ-35, 10 mM MgCl2, 4 mM MnCl2, 1 mM EGTA and 2 mM DTT. Reactions were then carried out in a solution containing 2.5 μL test compounds, 5 μL Tie-2/Tyr 05 peptide mixture (10 ng Tie-2 and 2 μM Tyr 05 peptide) and 2.5 μL ATP (100 μM). Then, the assay plate was shaken for 30 seconds on a plate shaker, and incubated for 1 hour at room temperature (20~25 °C). After sufficient kinase reactions, 5 μL development reagent A was added to each well, and the plate was incubated for another hour. Finally, 5 μL stop reagent was added to terminate the reactions, and the coumarin and fluorescein emission signals (excitation: 400 nm; emission: 445 and 520 nm, respectively) were measured on a fluorescence plate reader (BioTek Synergy 4).

Tie-2 = test system: Tie-2; parameters: method as in PMID 17618114; settings: tool inhibitor; read-out: IC50 against Tie-2, previously reported; cited from earlier work
[2] = Z′-Lyte assay, 100 μM ATP, n ≥ 2 per concentration, read-out: IC50 (half-maximal inhibitory concentration), Tie-2 kinase
[3] = in the dose-response figure, read-out: IC50 (dose-dependent inhibitory effect), Tie-2 kinase (converted)

Inhibition (%) @10 μg/ml [1]	Structure (SMILES)	further results
95.2±1.58%	COc1ccc2cc(-c3nc(-c4ccc([S+](C)[O-])cc4)[nH]c3-c3ccncc3)ccc2c1 (stereo not drawn) [Tie-2 inhibitor, reference compound]	Kinase Inhibition (%) at 5 μg/mL (± SD) ([1]; 5 μg/mL, n ≥ 2): 93.01 ± 1.02%; IC50 (Tie-2): 0.25 µM
25.58±3.23%	COc1cc(-c2nc3ccccn3c2N=Cc2c[nH]nc2-c2ccccc2)ccc1O [TP-C1-5]	–
56.84±0.18%	N#Cc1cc2c([nH]c1=O)CC(c1ccccc1)CC2=NNc1ccccc1 (stereo not drawn) [TP-C1-2]	–
–	COc1ccc(C(=O)NC(=S)Nc2ccc(NC(=O)c3ccccc3)cc2)cc1[N+](=O)[O-] [TP-C3-15]	inhibition at 5 µg/mL ([1]; 5 μg/mL, n ≥ 2, read-out: Kinase Inhibition (%) at 5 μg/mL (± SD)): 35.1 ± 0.63%; IC50 [1, 2]: 13.8 µM; fold decline in activity compared to TP-C2-9 ([1]; from IC50 values): ~ 10 fold
63.88±1.45%	O=C(c1cc(-c2ccncc2)nc2ccc(Br)cc12)N1CCN(Cc2ccc3c(c2)OCO3)CC1 [TP-C1-45]	–
–	CC(=O)Nc1c(O)nc(SCC(=O)Nc2ccc(C(C)=O)cc2)[nH]c1=O [TP-C1-47]	inhibition at 10 µg/mL [1]: 81.9 ± 1.73%; IC50 [1, 2]: 5.15 ± 0.4 µM; IC50 [1, 3]: 5.15 µM
61.48±4.57%	O=C(c1cc(-c2ccncc2)nc2ccc(Cl)cc12)N1CCN(C(=O)C2CCCO2)CC1 (stereo not drawn) [TP-C2-36]	–
55.92±5.4%	CC(C)CNC(=O)c1ccccc1NC(=O)c1ccccc1N(C)S(=O)(=O)c1ccccc1 [TP-C2-29]	–
–	CCOc1ccc2c(c1)-c1c(ssc1=S)C(C)(C)N2C(=O)CSc1nc(C)cc(O)n1 [TP-C1-17]	inhibition at 10 µg/mL [1]: 89.5 ± 2.93%; IC50 [1, 2]: 4.45 ± 0.36 µM; IC50 [1, 3]: 4.45 µM
37.56±1.85%	COc1cc(C=NN=C2SC(CC(=O)O)C(=O)N2c2ccc(O)cc2)ccc1O (stereo not drawn) [TP-C1-11]	–
66.52±7.26%	O=C(NCc1n[nH]c(=O)c2ccccc12)c1cc2ccccc2oc1=O [TP-C2-32]	–
11.44±0.49%	O=C(CC1c2ccccc2Oc2ccccc21)Nc1ccccn1 [TP-C1-30]	–
-0.28±1.12%	Cc1ccccc1-c1nc(S(=O)(=O)c2ccc(Cl)cc2)c(NCc2cccnc2)o1 [TP-C1-43]	–
55.24±1.85%	Cc1ccc(C(=O)CSc2nc3ccccc3c(=O)n2N)o1 [TP-C2-43]	–
71.64±2.92%	COc1ccc(OC)c(Nc2nc(-c3cccc(NC(=O)c4ccccc4)c3)cs2)c1 [TP-C2-14]	–
66.88±8.04%	Cc1nc(-c2cccnc2)sc1C(=O)NCc1ccccn1 [TP-C2-60]	–
49.58±1.56%	COc1cccc(OC)c1C(=O)NC(=S)Nc1ccc(NC(=O)c2ccco2)c(Cl)c1 [TP-C1-49]	–
-113.04±17.27%	CN(CCc1ccccn1)S(=O)(=O)c1ccc2c3c(cccc13)C(=O)N2 [TP-C2-25]	–
–	O=C(NC(=S)Nc1cccc2c(O)cccc12)c1ccc(-c2ccccc2)cc1 [TP-C2-50]	inhibition at 10 µg/mL [1]: 97.8 ± 1.13%; IC50 [1, 2]: 1.73 ± 0.17 µM; IC50 [1, 3]: 1.73 µM
60.19±2.33%	O=C(Nc1ccccn1)c1cc(-c2ccncc2)nc2ccccc12 [TP-C2-54]	–
